Experiment: xn = mol fraction of the nth substance listed
Details: Liquid, Vibrating tube method

COc1cc2c(cc1O)CC1c3c(cc(O)c(OC)c3-2)CCN1C (stereo not given) [boldine] + CCCO
Details | mass density [kg/m3]
313.09 K, 1000 kPa, x1 = 0.0142 | 812.51
313.09 K, 2000 kPa, x1 = 0.0142 | 813.26
313.09 K, 3000 kPa, x1 = 0.0142 | 814.02
313.09 K, 4000 kPa, x1 = 0.0142 | 814.8
313.09 K, 5000 kPa, x1 = 0.0142 | 815.58
313.09 K, 6000 kPa, x1 = 0.0142 | 816.36
313.09 K, 7000 kPa, x1 = 0.0142 | 817.15
313.09 K, 8000 kPa, x1 = 0.0142 | 817.95
313.09 K, 9000 kPa, x1 = 0.0142 | 818.75
313.09 K, 10000 kPa, x1 = 0.0142 | 819.54
313.09 K, 11000 kPa, x1 = 0.0142 | 820.32
313.09 K, 12000 kPa, x1 = 0.0142 | 821.12
313.09 K, 13000 kPa, x1 = 0.0142 | 821.89
313.09 K, 14000 kPa, x1 = 0.0142 | 822.65
313.09 K, 15000 kPa, x1 = 0.0142 | 823.42
313.09 K, 16000 kPa, x1 = 0.0142 | 824.16
313.09 K, 17000 kPa, x1 = 0.0142 | 824.91
313.09 K, 18000 kPa, x1 = 0.0142 | 825.63
313.09 K, 19000 kPa, x1 = 0.0142 | 826.34
313.09 K, 20000 kPa, x1 = 0.0142 | 827.03
313.14 K, 1000 kPa, x1 = 0.0046 | 797.2
313.14 K, 2000 kPa, x1 = 0.0046 | 797.97
313.14 K, 3000 kPa, x1 = 0.0046 | 798.75
313.14 K, 4000 kPa, x1 = 0.0046 | 799.53
313.14 K, 5000 kPa, x1 = 0.0046 | 800.32
313.14 K, 6000 kPa, x1 = 0.0046 | 801.13
313.14 K, 7000 kPa, x1 = 0.0046 | 801.93
313.14 K, 8000 kPa, x1 = 0.0046 | 802.74
313.14 K, 9000 kPa, x1 = 0.0046 | 803.55
313.14 K, 10000 kPa, x1 = 0.0046 | 804.36
313.14 K, 11000 kPa, x1 = 0.0046 | 805.17
313.14 K, 12000 kPa, x1 = 0.0046 | 805.97
313.14 K, 13000 kPa, x1 = 0.0046 | 806.77
313.14 K, 14000 kPa, x1 = 0.0046 | 807.55
313.14 K, 15000 kPa, x1 = 0.0046 | 808.32
313.14 K, 16000 kPa, x1 = 0.0046 | 809.08
313.14 K, 17000 kPa, x1 = 0.0046 | 809.85
313.14 K, 18000 kPa, x1 = 0.0046 | 810.58
313.14 K, 19000 kPa, x1 = 0.0046 | 811.3
313.14 K, 20000 kPa, x1 = 0.0046 | 812.01
313.15 K, 1000 kPa, x1 = 0.0018 | 790.99
313.15 K, 1000 kPa, x1 = 0.0077 | 801.14
313.15 K, 1000 kPa, x1 = 0.0112 | 807.94
313.15 K, 2000 kPa, x1 = 0.0018 | 791.76
313.15 K, 2000 kPa, x1 = 0.0077 | 801.89
313.15 K, 2000 kPa, x1 = 0.0112 | 808.71
313.15 K, 3000 kPa, x1 = 0.0018 | 792.55
313.15 K, 3000 kPa, x1 = 0.0077 | 802.66
313.15 K, 3000 kPa, x1 = 0.0112 | 809.47
313.15 K, 4000 kPa, x1 = 0.0018 | 793.33
313.15 K, 4000 kPa, x1 = 0.0077 | 803.44
313.15 K, 4000 kPa, x1 = 0.0112 | 810.25
313.15 K, 5000 kPa, x1 = 0.0018 | 794.13
313.15 K, 5000 kPa, x1 = 0.0077 | 804.23
313.15 K, 5000 kPa, x1 = 0.0112 | 811.06
313.15 K, 6000 kPa, x1 = 0.0018 | 794.94
313.15 K, 6000 kPa, x1 = 0.0077 | 805.03
313.15 K, 6000 kPa, x1 = 0.0112 | 811.83
313.15 K, 7000 kPa, x1 = 0.0018 | 795.75
313.15 K, 7000 kPa, x1 = 0.0077 | 805.83
313.15 K, 7000 kPa, x1 = 0.0112 | 812.63
313.15 K, 8000 kPa, x1 = 0.0018 | 796.57
313.15 K, 8000 kPa, x1 = 0.0077 | 806.63
313.15 K, 8000 kPa, x1 = 0.0112 | 813.42
313.15 K, 9000 kPa, x1 = 0.0018 | 797.38
313.15 K, 9000 kPa, x1 = 0.0077 | 807.44
313.15 K, 9000 kPa, x1 = 0.0112 | 814.2
313.15 K, 10000 kPa, x1 = 0.0018 | 798.19
313.15 K, 10000 kPa, x1 = 0.0077 | 808.25
313.15 K, 10000 kPa, x1 = 0.0112 | 815
313.15 K, 11000 kPa, x1 = 0.0018 | 799.01
313.15 K, 11000 kPa, x1 = 0.0077 | 809.05
313.15 K, 11000 kPa, x1 = 0.0112 | 815.81
313.15 K, 12000 kPa, x1 = 0.0018 | 799.83
313.15 K, 12000 kPa, x1 = 0.0077 | 809.85

— the NIST ThermoML archive (doi:10.1016/j.jct.2012.03.003)
